# Data from ChEMBL document CHEMBL4483862, “Open-source discovery of chemical leads for next-generation chemoprotective antimalarials” (2018).
# System: Plasmodium berghei
# Assay: Luciferase/luciferin-expressing antifolate-resistant parasites were used to infect a culture of HepG2 cells that were pre-incubated with compounds. Infected hepatocytes emit light due to the luciferase reaction. Assay results are presented as the percent inhibition of light emission compared to control. […]
# Format: functional
# Conditions: sporozoite; for IC90: read-out: LUCIFERASE INFECTION ASSAY - IC90
# [1] = read-out: LUCIFERASE INFECTION ASSAY - IC50
Compound,IC90 [µM],IC50 [1] [µM],other results
COc1cccc(C2=NN(C(=O)c3ccco3)C(c3ccccc3O)C2)c1 (configuration not stated),8.57,,"IC50 (HEPG2TOX_HILL_SLOPE 15.7, HEPG2TOX_R_SQUARED 0.922, PBLUC_HILL_SLOPE 21, PBLUC_R_SQUARED 0.659, read-out: LUCIFERASE INFECTION ASSAY - IC50): 7.72 µM"
Fc1cccc(F)c1NC(=S)Nc1cc(C(F)(F)F)cc(C(F)(F)F)c1,> 8.24,> 8.24,
CCn1cc(C(=O)N[C@@H](C)C(=O)OC)c(=O)c2cc3c(cc21)OCO3,> 9.53,,"IC50 (FFLUC_HILL_SLOPE 11.2, FFLUC_R_SQUARED 0.325, read-out: LUCIFERASE INFECTION ASSAY - IC50): > 9.53 µM"
CCN(CC)CCn1c(NC(=O)c2cc(-c3cccs3)nn2-c2ccccc2)nc2ccccc21,> 10,,"IC50 (PBLUC_HILL_SLOPE 2.69, PBLUC_R_SQUARED 0.0924, read-out: LUCIFERASE INFECTION ASSAY - IC50): 6.76 µM"
Cc1nc2cc3c(cc2n1CC(=O)N1CCN(c2ccccc2)CC1)OCCO3,> 10,> 10,
Cc1c(/C=N/N)c2ccccn2c1C#N,> 10,> 10,
O=C(c1cnn(C(=O)c2nn(-c3ccc(Cl)cc3)cc2O)c1)c1ccccc1O,3.83,,"IC50 (HEPG2TOX_HILL_SLOPE 0.890, 1.11, HEPG2TOX_R_SQUARED 0.813, 0.357, PBLUC_HILL_SLOPE 9.04, 15.6, PBLUC_R_SQUARED 0.0255, 0.659, read-out: LUCIFERASE INFECTION ASSAY - IC50): 3.15 µM"
COc1cc2c(cc1OC)C(c1cccs1)N(C(=O)CC1CCCC1)CC2 (configuration not stated),> 10,,"IC50 (FFLUC_HILL_SLOPE 12.1, FFLUC_R_SQUARED 0.331, HEPG2TOX_HILL_SLOPE 1.22, HEPG2TOX_R_SQUARED 0.987, PBLUC_HILL_SLOPE 1.62, PBLUC_R_SQUARED 0.49, read-out: LUCIFERASE INFECTION ASSAY - IC50): 2.88 µM"
CCCCOc1ccc(C(=O)NCC(=O)N2CCN(C/C=C/c3ccccc3)CC2)cc1,7.33,5.03,
CC(C)(C(=O)NNC(=O)c1ccc2ccccc2n1)c1ccccc1,7.01,,"IC50 (HEPG2TOX_HILL_SLOPE 11.1, HEPG2TOX_R_SQUARED 0.756, PBLUC_HILL_SLOPE 1.23E+03, PBLUC_R_SQUARED 0.165, read-out: LUCIFERASE INFECTION ASSAY - IC50): 7 µM"
COc1ccc(C(C)(C)C)cc1NC(=O)c1ccc(Cl)c(S(=O)(=O)N2CCc3ccccc32)c1,> 10,,"IC50 (FFLUC_HILL_SLOPE 21.6, FFLUC_R_SQUARED 0.0861, HEPG2TOX_HILL_SLOPE 0.0233, HEPG2TOX_R_SQUARED 0.0468, PBLUC_HILL_SLOPE 7.45, PBLUC_R_SQUARED 0.387, read-out: LUCIFERASE INFECTION ASSAY - IC50): 8.38 µM"
CC(=O)C1=NN(c2ccccc2)C(c2ccccc2OCc2ccccc2)N1c1ccc(N2CCOCC2)cc1 (configuration not stated),> 10,,"IC50 (FFLUC_HILL_SLOPE 2.34, FFLUC_R_SQUARED 0.456, PBLUC_HILL_SLOPE 2.53, PBLUC_R_SQUARED 0.447, read-out: LUCIFERASE INFECTION ASSAY - IC50): 9.41 µM"
C=CCCC(=O)Nc1ccc(Br)cn1,> 12.9,,"IC50 (HEPG2TOX_HILL_SLOPE 2.37, HEPG2TOX_R_SQUARED 0.964, PBLUC_HILL_SLOPE 2.08, PBLUC_R_SQUARED 0.0582, read-out: LUCIFERASE INFECTION ASSAY - IC50): 5.2 µM"
CCOC(=O)c1c(-c2ccccc2)oc2ccc(N(C(C)=O)S(=O)(=O)c3ccc4ccccc4c3)cc12,> 10,6.33,
COc1cc(/C=C2\SC(=O)N(CCNC(=O)c3cnccn3)C2=O)ccc1OC(F)F,> 10,,"IC50 (HEPG2TOX_HILL_SLOPE 8.8, HEPG2TOX_R_SQUARED 0.871, PBLUC_HILL_SLOPE 1.47, PBLUC_R_SQUARED 0.589, read-out: LUCIFERASE INFECTION ASSAY - IC50): > 10 µM"
Clc1cccc(Nc2ncc(-c3ccc4c(c3)OCCCO4)s2)c1,3.49,,"IC50 (PBLUC_HILL_SLOPE 0.775, PBLUC_R_SQUARED 0.83, read-out: LUCIFERASE INFECTION ASSAY - IC50): 0.205 µM"
O=C(Cc1ccccc1)NCC(=O)N1CCOC(c2ccccc2)C1 (configuration not stated),> 10,> 10,
CN1C(=O)N(CCCc2ccncc2)C(=O)C12CCN(Cc1ccc(N3CCCC3)cc1)CC2,2.98,,"IC50 (HEPG2TOX_HILL_SLOPE 1.82, HEPG2TOX_R_SQUARED 0.908, PBLUC_HILL_SLOPE 12.5, PBLUC_R_SQUARED 0.321, read-out: LUCIFERASE INFECTION ASSAY - IC50): 2.5 µM"
CCOc1cc(/C=C(\C#N)C(=O)c2cccc(OC)c2)cc(Cl)c1O,> 10,> 10,
O=C(Nc1nc2ccccn2c1C(=O)NC1CCCC1)c1ccc(F)cc1F,3.49,2.94,
Nc1nnc(SCC(=O)N(Cc2ccccc2)c2nc(-c3ccc(Cl)cc3)cs2)[nH]1,> 10,> 10,

Compound,IC90 [µM],IC50 [1] [µM],other results
CC(C)(C)c1ccc(-c2csc(NC(=O)c3cnccn3)n2)cc1,> 10,,"IC50 (HEPG2TOX_HILL_SLOPE 8.57, HEPG2TOX_R_SQUARED 0.595, PBLUC_HILL_SLOPE 12.7, PBLUC_R_SQUARED 0.201, read-out: LUCIFERASE INFECTION ASSAY - IC50): 9.05 µM"
Cc1ccc2c(Cl)cc(Cl)c(OCC(=O)c3c[nH]c(C(=O)N4CCCC4)c3)c2n1,8.53,,"IC50 (HEPG2TOX_HILL_SLOPE 1.13, HEPG2TOX_R_SQUARED 0.949, PBLUC_HILL_SLOPE 1.15, PBLUC_R_SQUARED 0.754, read-out: LUCIFERASE INFECTION ASSAY - IC50): 1.25 µM"
N#Cc1cccnc1N1CCN(C(=O)c2cc(-c3ccccc3)nn2-c2ccccc2)CC1,> 10,> 10,
COc1ccc(Nc2nccc3c2cc(-c2ccccc2OC)n3C)cn1,4.48,,"IC50 (PBLUC_HILL_SLOPE 9.12, PBLUC_R_SQUARED 0.328, read-out: LUCIFERASE INFECTION ASSAY - IC50): 3.52 µM"
CCc1cccc2c(C3=CCN(c4ccc([N+](=O)[O-])cn4)CC3)c[nH]c12,> 10,,"IC50 (HEPG2TOX_HILL_SLOPE 2.16, 2.30, HEPG2TOX_R_SQUARED 0.931, 0.732, PBLUC_HILL_SLOPE 2.67, 4.10, PBLUC_R_SQUARED 0.259, 0.404, read-out: LUCIFERASE INFECTION ASSAY - IC50): 5.92 µM"
O=C(N/N=C/c1c(-c2ccccc2)n(-c2ccccc2)c2ccccc12)C1COc2ccccc2O1 (configuration not stated),> 10,,"IC50 (FFLUC_HILL_SLOPE 2.45, FFLUC_R_SQUARED 0.636, PBLUC_HILL_SLOPE 2.61, PBLUC_R_SQUARED 0.591, read-out: LUCIFERASE INFECTION ASSAY - IC50): 5.83 µM"
O=C1CCc2cc(-c3csc(NC(=O)c4ccc(-n5cnc6ccccc65)cc4)n3)ccc2N1,3.68,,"IC50 (PBLUC_HILL_SLOPE 2.11, 11.5, PBLUC_R_SQUARED 0.409, 0.367, read-out: LUCIFERASE INFECTION ASSAY - IC50): 3.63 µM"
OC[C@H]1O[C@@H](c2nc3cc(-c4nc(-c5ccccc5F)no4)ccc3[nH]2)C[C@@H]1O,2.9,,"IC50 (PBLUC_HILL_SLOPE 37.1, PBLUC_R_SQUARED 0.287, read-out: LUCIFERASE INFECTION ASSAY - IC50): 2.73 µM"
O=[N+]([O-])c1cnc(Sc2nnc(SCc3cccc(C(F)(F)F)c3)s2)s1,> 7.56,,"IC50 (FFLUC_HILL_SLOPE 0.915, FFLUC_R_SQUARED 0.422, read-out: LUCIFERASE INFECTION ASSAY - IC50): > 7.56 µM"
COc1ccc(-n2c(C)cc(C(=O)Cn3ncc(Cl)c(Cl)c3=O)c2C)cc1,> 10,,"IC50 (HEPG2TOX_HILL_SLOPE 0.989, HEPG2TOX_R_SQUARED 0.688, read-out: LUCIFERASE INFECTION ASSAY - IC50): > 10 µM"
Nc1nc(Cl)cc(NCCc2ccccc2)n1,> 13.3,,"IC50 (HEPG2TOX_HILL_SLOPE 4.29, HEPG2TOX_R_SQUARED 0.965, PBLUC_HILL_SLOPE 3.15, PBLUC_R_SQUARED 0.0969, read-out: LUCIFERASE INFECTION ASSAY - IC50): 10.4 µM"
N#C/C(=C\Nc1ncccn1)S(=O)(=O)c1ccccc1Cl,> 10.3,,"IC50 (FFLUC_HILL_SLOPE 11.3, FFLUC_R_SQUARED 0.831, read-out: LUCIFERASE INFECTION ASSAY - IC50): > 10.3 µM"
CC(=O)Nc1cccc(C(=O)Nn2cnc3ccccc3c2=O)c1,> 10,> 10,
CCCc1c(Cc2c(F)cccc2Cl)c(=O)oc2cc(OC(=O)COC)ccc12,3.31,,"IC50 (PBLUC_HILL_SLOPE 13.6, PBLUC_R_SQUARED 0.599, read-out: LUCIFERASE INFECTION ASSAY - IC50): 2.82 µM"
CCOC(=O)c1c(-c2ccc(C)cc2C)csc1NC(=O)COC(=O)c1cc(OC)c(OC)cc1[N+](=O)[O-],9.51,,"IC50 (FFLUC_HILL_SLOPE 2.01, FFLUC_R_SQUARED 0.464, HEPG2TOX_HILL_SLOPE 2.45, HEPG2TOX_R_SQUARED 0.944, PBLUC_HILL_SLOPE 17.4, PBLUC_R_SQUARED 0.281, read-out: LUCIFERASE INFECTION ASSAY - IC50): 8.38 µM"
Cc1ccc(-c2cc3nc(SCCOc4ccccc4F)n(Cc4ccccc4)c(=O)c3s2)cc1,> 10,> 10,
O=C1C(=O)N(CCN2CCOCC2)c2ccc(Cl)cc21,9.44,,"IC50 (PBLUC_HILL_SLOPE 1.82, PBLUC_R_SQUARED 0.307, read-out: LUCIFERASE INFECTION ASSAY - IC50): 2.83 µM"
CSc1ccc(-c2cn3c(-c4cccc(CO)c4)cnc3cn2)cc1,> 9.5,> 9.5,
O=C(CN1CCN(C(=O)/C=C/c2ccccc2[N+](=O)[O-])CC1)Nc1ccc(Cl)c(C(F)(F)F)c1,> 10,> 10,
Clc1ccc2c(Nc3ccc(N4CCOCC4)cc3)ccnc2c1,> 10,> 10,
